# Results published in US8536336B2, “Prodrug compounds useful as cannabinoid ligands” (AbbVie Inc., priority 2009, dated 2013).
# Assays:
# [1] = Solubility of prodrug in water or 0.1 N aqueous HCl (HPLC of filtrate); settings: thermodynamic from solid
# Procedure: (§1) Approximately 3 mg of prodrug was weighed into a vial and 750 μL of water or 0.1 N aqueous HCl was added. The mixtures were vortexed to wet the solids. The mixtures were equilibrated for 1 hour with gentle agitation in a constant temperature water bath (T=25° C. for water samples and T=37° C. for 0.1 N HCl samples). After equilibration, the mixtures were visually inspected to assure that the amount of excess solid was sufficient to permit re-characterization. If not, solubility was reported as greater than the weighed concentration of prodrug (concentrations were confirmed by HPLC). The solid phase was then separated from the liquid phase by filtration through a 13 mm 0.45 μm GHP syringe filter (Pall Corporation). The filtrate was diluted as needed for quantification of the material studied by HPLC, and the concentration of the filtrate was reported as the solubility of the prodrug in the given medium.
# physchem = settings: thermodynamic from solid
# Procedure: as §1
# [2] = In vivo regeneration of the parent compound after oral dosing of prodrug (plasma, HPLC-MS/MS); parameters: species or system Sprague-Dawley rats; settings: rat, oral aqueous formulation by gavage, blood samples for 24 hours
# Procedure: Male Sprague-Dawley rats, weighing 250-400 g, were obtained from Charles Rivers Laboratories. For the initial screening, each prodrug was evaluated in one group of three rats. All rats received an oral aqueous formulation (suspension or solution), administered by gavage. Sequential blood samples were obtained from a tail vein of each animal for 24 hours after dosing. Plasma was separated by centrifugation and stored frozen until analysis. Compounds were selectively removed from the plasma using protein precipitation followed by reverse phase HPLC with MS/MS detection for quantitation. Attempts were made to measure both the prodrug and the parent compounds in each sample.
# [3] = 0.1 N aqueous HCl, 37 °C, simulated gastric fluid
SMILES,"solubility at 1 h [1, 3] [µg/mL]","solubility at 1 h ([1]; water, 25 °C) [µg/mL]","solubility at 1 h (physchem; 25 °C, water) [µg/mL]","solubility at 1 h (physchem; 37 °C, simulated gastric fluid) [µg/mL]",Parent (Example 18) detected in plasma after dosing the prodrug [2],Prodrug detected in plasma after dosing the prodrug [2]
"CCCCn1/c(=N/C(=O)c2cc(C(F)(F)F)ccc2OC[C@H](C)O)sc2cc[n+](COC(C)=O)cc21.[Br-] [Example 1, (2Z)-5-[(acetyloxy)methyl]-3-butyl-2-{[2-{[(2S)-2-hydroxypropyl]oxy}-5-(trifluoromethyl)benzoyl]imino}-2,3-dihydro[1,3]thiazolo[4,5-c]pyridin-5-ium bromide]",2500,1800,–,–,–,–
"CCCCn1/c(=N/C(=O)c2cc(C(F)(F)F)ccc2OC[C@H](C)OC(=O)C(C)(C)N)sc2ccncc21 [Example 2, (1S)-2-[2-({[(2Z)-3-butyl[1,3]thiazolo[4,5-c]pyridin-2(3H)-ylidene]amino}carbonyl)-4-(trifluoromethyl)phenoxy]-1-methylethyl 2-methylalaninate]",4100,2300,–,–,–,–
"CCCCn1/c(=N/C(=O)c2cc(C(F)(F)F)ccc2OC[C@H](C)OC(=O)CN)sc2ccncc21 [Example 3, (1S)-2-[2-({[(2Z)-3-butyl[1,3]thiazolo[4,5-c]pyridin-2(3H)-ylidene]amino}carbonyl)-4-(trifluoromethyl)phenoxy]-1-methylethyl glycinate]",–,–,1200,> 4100,–,–
"CCCCn1/c(=N/C(=O)c2cc(C(F)(F)F)ccc2OC[C@H](C)O)sc2cc[n+](COC(=O)C(C)(C)C)cc21.[Cl-] [Example 4, (2Z)-3-butyl-5-{[(2,2-dimethylpropanoyl)oxy]methyl}-2-{[2-{[(2S)-2-hydroxypropyl]oxy}-5-(trifluoromethyl)benzoyl]imino}-2,3-dihydro[1,3]thiazolo[4,5-c]pyridin-5-ium chloride]",200,3300,–,–,–,–
"CCCCn1/c(=N/C(=O)c2cc(C(F)(F)F)ccc2OC[C@H](C)O)sc2cc[n+](COC(=O)c3ccccc3)cc21.[Cl-] [Example 5, (2Z)-5-[(benzoyloxy)methyl]-3-butyl-2-{[2-{[(2S)-2-hydroxypropyl]oxy}-5-(trifluoromethyl)benzoyl]imino}-2,3-dihydro[1,3]thiazolo[4,5-c]pyridin-5-ium chloride]",16,740,–,–,–,–
"CCCCn1/c(=N/C(=O)c2cc(C(F)(F)F)ccc2OC[C@H](C)OC(=O)[C@H](C)N)sc2ccncc21 [Example 6, (1S)-2-[2-({[(2Z)-3-butyl[1,3]thiazolo[4,5-c]pyridin-2(3H)-ylidene]amino}carbonyl)-4-(trifluoromethyl)phenoxy]-1-methylethyl L-alaninate]",> 4100,2300,–,–,–,–
"CCCCn1/c(=N/C(=O)c2cc(C(F)(F)F)ccc2OC[C@H](C)O)sc2cc[n+](COC(=O)N3CCC[C@H]3C(=O)OC)cc21.[Cl-] [Example 7, (2Z)-3-butyl-2-{[2-{[(2S)-2-hydroxypropyl]oxy}-5-(trifluoromethyl)benzoyl]imino}-5-[({[(2S)-2-(methoxycarbonyl)pyrrolidin-1-yl]carbonyl}oxy)methyl]-2,3-dihydro[1,3]thiazolo[4,5-c]pyridin-5-ium chloride]",> 4300,> 4300,–,–,–,–
"CCCCn1/c(=N/C(=O)c2cc(C(F)(F)F)ccc2OC[C@H](C)O)sc2cc[n+](COC(=O)N(C)C)cc21.[Cl-] [Example 8, (2Z)-3-butyl-5-({[(dimethylamino)carbonyl]oxy}methyl)-2-{[2-{[(2S)-2-hydroxypropyl]oxy}-5-(trifluoromethyl)benzoyl]imino}-2,3-dihydro[1,3]thiazolo[4,5-c]pyridin-5-ium chloride]",> 4000,3900,–,–,–,–
"CCCCn1/c(=N/C(=O)c2cc(C(F)(F)F)ccc2OC[C@H](C)OP(=O)(O)O)sc2ccncc21 [Example 9, (1S)-2-[2-({[(2Z)-3-butyl[1,3]thiazolo[4,5-c]pyridin-2(3H)-ylidene]amino}carbonyl)-4-(trifluoromethyl)phenoxy]-1-methylethyl dihydrogen phosphate]",7,830,–,–,–,–
"CCCCn1/c(=N/C(=O)c2cc(C(F)(F)F)ccc2OC[C@H](C)O)sc2cc[n+]([O-])cc21 [Example 12, N-[(2Z)-3-butyl-5-oxido[1,3]thiazolo[4,5-c]pyridin-2(3H)-ylidene]-2-{[(2S)-2-hydroxypropyl]oxy}-5-(trifluoromethyl)benzamide]",–,–,–,–,Measurable concentrations,Measurable concentrations
"CCCCn1/c(=N/C(=O)c2cc(C(F)(F)F)ccc2OC[C@H](C)OC(=O)CCC(=O)O)sc2ccncc21 [Example 14, 4-({(1S)-2-[2-({[(2Z)-3-butyl[1,3]thiazolo[4,5-c]pyridin-2(3H)-ylidene]amino}carbonyl)-4-(trifluoromethyl)phenoxy]-1-methylethyl}oxy)-4-oxobutanoic acid]",–,–,73,10,–,–
"CCCCn1/c(=N/C(=O)c2cc(C(F)(F)F)ccc2OC[C@H](C)OC(=O)NCCN(C)C)sc2ccncc21 [Example 15, (1S)-2-[2-({[(2Z)-3-butyl[1,3]thiazolo[4,5-c]pyridin-2(3H)-ylidene]amino}carbonyl)-4-(trifluoromethyl)phenoxy]-1-methylethyl 2-(dimethylamino)ethylcarbamate]",> 4000,680,–,–,Measurable concentrations,Measurable concentrations
"CCCCn1/c(=N/C(=O)c2cc(C(F)(F)F)ccc2OC[C@H](C)O)sc2ccncc21 [Example 18, N-[(2Z)-3-butyl[1,3]thiazolo[4,5-c]pyridin-2(3H)-ylidene]-2-{[(2S)-2-hydroxypropyl]oxy}-5-(trifluoromethyl)benzamide]",4.3,< 0.02,–,–,–,–
